Among the data in PubChem BioAssay AID602211 (Sanford-Burnham Center for Chemical Genomics, 2012) are IC50 values, retold here.

This test relates to H9c2 cardiomyocytes, H2O2 protection, ATPLite viability, 2 h. Briefly: H2O2-induced H9c2 cell death suppression – ATPLite luminescence, set 2, dose response (AID 602211).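 Also: potency is for protection so actives keep ATP signal up against peroxide killing.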

Active and inactive are the calls of the source.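 The calls were made as follows: active = mean IC50 at or below 10 µM; inactive = the rest.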 Some results are limits rather than exact numbers.

Regarding `CC1(C)CC(=O)C2=C(C1)N(CCN1CCOCC1)C1=C(C(=O)CC(C)(C)C1)C2c1ccc(Cl)cc1`, the IC50 was 9.75 µM.

Regarding `CCN(CC)c1ccc(C2C(C(=O)OC(C)C)C(=O)CC(C)(O)C2C(=O)OC(C)C)cc1` (stereo not drawn), the IC50 is 7.99 µM.

In the case of `NC(=O)c1nsc(C(=O)N(c2ccccc2)C(C(=O)NCc2ccc(F)cc2)c2ccc(O)cc2)c1N` (stereo not drawn), the IC50 was 1.98 µM.

For `CC(=O)Nc1cccc(-c2cc(NC(C)=O)c3ncc(-c4cccc(C(C)=O)c4)n3c2)c1`, the IC50 is 38.4 µM (inactive).

On to `O=C(Nc1cccc2cccnc12)c1ccc2sc([C@H]3C[C@H](O)[C@@H](CO)O3)nc2c1`, for which the 50% inhibitory concentration (IC50) was 4.33 µM.

Regarding `O=C(c1ccccc1)c1ccc2nc(N3CCN(C(=O)c4ccco4)CC3)c3nncn3c2c1`, the IC50 was 9.31 µM.

Turning to `COc1cccc(C(=O)Nc2cc(C)c3c(=O)oc4ccccc4c3n2)c1`, the concentration for half-maximal inhibition (IC50) is 7.02 µM.

Regarding `CCOc1cc(-c2cc(-c3ccc(N)cc3)nc(N)c2C#N)ccc1O`, the IC50 was 5.99 µM.

Regarding `COc1ccccc1OP(=O)(Nc1cccnc1)Oc1ccccc1OC`, the IC50 is 2.28 µM.

With `COc1cc(OC)cc(C(=O)Nc2ccc(C(=O)Nc3ccccc3OC)cc2)c1`, the IC50 is 10.2 µM (inactive).

For the compound `Cc1cc(N)n(-c2nc(-c3cccnc3)nc3ccccc23)n1`, the IC50 is 16.2 µM (inactive).

`C/C(=N\Nc1nnc2c3ccccc3n(C)c2n1)c1ccc(C)o1`: the IC50 is 10.4 µM (inactive).

Take `NC(=O)c1ccc(Nc2nnc(-c3ccc(O)cc3)c3ccccc23)cc1`: the IC50 was 14.7 µM (inactive).

As for `O=c1cc(-c2cccnc2)oc2c1ccc1ccccc12`, the IC50 is 31.2 µM (inactive).

As for `CCOc1ccc2[nH]c(=O)c(CN(Cc3nnnn3Cc3ccco3)C3CCCCC3)cc2c1`, the IC50 is > 79 µM (inactive).

Consider `CCOc1ccc(S(=O)(=O)N(C)CCO)cc1-c1nc2c(C(C)(C)C)nn(C)c2c(=O)[nH]1`, for which the IC50 is 5.22 µM.

Consider `OC1CCN(c2c3c(nc4cc(-c5cccc(F)c5)nn24)CCCC3)CC1`, for which the IC50 is 6.02 µM.

Turning to `CC(=O)c1cccc(-c2cnc3c(NC=O)cc(-c4ccc(F)cc4)cn23)c1`, the IC50 was 7.76 µM.

As for `Cc1ccc(S(=O)(=O)N2CCN(C(=O)c3cc(=O)[nH]c4ccccc34)CC2)c(C)c1`, the 50% inhibitory concentration (IC50) is 2.24 µM.

With `COc1cccc(CN2CCN(C(=O)c3cc(-c4cccnc4)nc4ccc(C)cc34)CC2)c1`, the IC50 is 22.9 µM (inactive).

In the case of `O=c1c2ccccc2nc(CSc2ncnc3nc[nH]c23)n1-c1ccc(Cl)c(Cl)c1`, the IC50 is 4.13 µM.

Regarding `N#Cc1cnn2cc(-c3ncc(C(F)(F)F)cc3Cl)cnc12`, the IC50 is 29.9 µM (inactive).

Consider `CCCC(=O)Nc1nc2ccc(NC(=O)c3ccc(Br)o3)cc2s1`, for which the IC50 was 15.2 µM (inactive).

Turning to `CCn1c(O)c(/C=N/N=C2CCCCC2)c2cc(C3=NNC(=O)CC3)ccc21`, the IC50 was 9.96 µM.

As to `COc1cc2nc(Nc3ccc(F)cc3)nc(N)c2cc1OC`, the IC50 is 4.24 µM.

In the case of `COc1cc(-c2cc(NC(C)=O)c3ncc(-c4ccccc4)n3c2)cc(OC)c1OC`, the IC50 was 6.75 µM.

Take `Cc1ccc(-c2nnc(NCc3nc4ccccc4[nH]3)c3ccccc23)cc1S(=O)(=O)N1CCOCC1`: the IC50 was 4.11 µM.

Turning to `COc1ccc(OCC(O)Cn2c(Br)nc3c2c(=O)[nH]c(=O)n3C)cc1` (stereo not drawn), the IC50 is 15.9 µM (inactive).

In the case of `COc1ccc(CSc2nc3ccccc3c(=O)[nH]2)cc1F`, the IC50 was 8.59 µM.

`CC(C)(C)OC(=O)NCc1ccc(NC(=O)c2nc[nH]c2C(=O)NCCCCCCNC(=O)c2[nH]cnc2C(=O)Nc2ccc(CNC(=O)OC(C)(C)C)cc2)cc1`: the IC50 was > 79 µM (inactive).

On to `Cc1ncc(CO)c2cc(C(=O)Nc3ccccc3Cl)c(=Nc3cccc(C(N)=O)c3)oc12`, for which the IC50 is 0.51 µM.

Take `Nc1c(C(=O)N/N=C/c2cccnc2)oc2nc(-c3ccco3)cc(-c3ccco3)c12`: the IC50 is 2.45 µM.

For `O=C(Nc1cccnc1)c1sc(Nc2ccccc2)nc1-c1ccccc1`, the half-inhibitory concentration (IC50) was 8.72 µM.

With `CCCNC(=O)c1c(N)n(-c2cccc(OC)c2)c2nc3ccccc3nc12`, the IC50 is > 79 µM (inactive).

For the compound `CC(=O)c1ccc(N2CCN(C(=O)c3cc(-c4cccnc4)nc4ccc(Br)cc34)CC2)cc1`, the IC50 was 3.78 µM.

With `O=C(CSc1nnc(-c2ccccc2)n1Cc1ccccc1)NNC(=O)c1ccccc1O`, the IC50 was 4.2 µM.

Turning to `N#C/C(=C\c1cn(-c2ccccc2)nc1-c1cccnc1)c1nnc2n1CCCCC2`, the IC50 was 13.7 µM (inactive).

Turning to `CC1Cc2ccccc2N1C(=O)c1cc2c(=O)n3ccccc3nc2n1C` (stereo not drawn), the IC50 is > 79 µM (inactive).

Take `COc1ccc(OC)c(Nc2nc(N)c([N+](=O)[O-])c(N3CCOCC3)n2)c1`: the IC50 was 11.8 µM (inactive).

As to `O=C(c1ccco1)N1CCN(C(=O)c2cc(-c3ccncc3)nc3ccc(Br)cc23)CC1`, the IC50 was 13.8 µM (inactive).

As to `COc1cc(-c2cc(C(=O)NCc3ccco3)c3ccccc3n2)cc(OC)c1OC`, the IC50 was 13.5 µM (inactive).

For `Clc1ccccc1-c1nc(N/N=C/c2cccnc2)c2ccccc2n1`, the IC50 is 7.3 µM.

For `O=C(NC1CCCCC1)C(c1ccc2ncccc2c1)N(Cc1cccs1)C(=O)c1cccs1` (stereo not drawn), the IC50 was 1.96 µM.

For `COc1cccc(-c2cnc3c(NC=O)cc(-c4cc(C)c(O)c(C)c4)cn23)c1`, the IC50 was 10.2 µM (inactive).

For `COc1cccc(Nc2nc(-c3sc(NC(=O)c4ccco4)nc3C)cs2)c1`, the IC50 was 7.15 µM.

As to `CC(=O)Nc1ccc(NS(=O)(=O)c2cc(-c3n[nH]c(=O)c4ccccc34)ccc2C)cc1`, the IC50 was 3.65 µM.

Turning to `CNC(=O)c1cccc(NC(=O)c2cc(-c3ccccc3)nc3c2cnn3C(C)C)c1`, the IC50 is > 79 µM (inactive).

With `CCn1c(O)c(/C=N/N=C/c2ccccc2)c2ccc(C3=NNC(=O)CC3)cc21`, the 50% inhibitory concentration (IC50) was 4.56 µM.

As for `CC(=O)Nc1cccc(-c2cc(NC=O)c3ncc(-c4cccc(C(C)=O)c4)n3c2)c1`, the IC50 was 22.1 µM (inactive).

Turning to `COc1ccc2c(c1OC)C(=O)N1c3ccccc3C(=O)N(c3ccccc3)C21` (stereo not drawn), the IC50 was 6.9 µM.

`COc1ccc(CCNC(=O)c2cc3c(C)nccc3[nH]c2=O)cc1OC`: the IC50 is 7.47 µM.

With `CC(C)(C)OC(=O)C[C@@H]1C/C=C\C[C@@H](CC(=O)N[C@@H](CO)Cc2ccccc2)C(=O)NC[C@@H](c2ccccc2)OC1=O`, the IC50 was 12.9 µM (inactive).

`CC(C)CC(C(=O)NC1CCCCC1)N(Cc1cccs1)C(=O)c1snc(C(N)=O)c1N` (stereo not drawn): the IC50 was 10.2 µM (inactive).

For `C=CCOC(=O)C1=C[C@H](c2cn(C(C)=O)c3ccccc23)C[C@H](OCc2ccc(CO)cc2)O1`, the IC50 is 9.81 µM.

Consider `C[C@H](CO)N1C[C@H](C)[C@@H](CN(C)S(=O)(=O)c2cccs2)Oc2ccc(NC(=O)Nc3ccccc3)cc2C1=O`, for which the IC50 is 16 µM (inactive).

For `COc1cc(/C=N/NC(=O)c2cccnc2)ccc1OS(=O)(=O)c1ccc(F)cc1`, the IC50 is 3.17 µM.

For `CC(C)c1cc(N2CCN(C(=O)c3ccco3)CC2)n2c(nc3ccccc32)c1C#N`, the IC50 is 44.8 µM (inactive).

For the compound `COc1ccc(-c2cc(-c3nnc(COC(=O)C4CC4C)o3)c3ccccc3n2)cc1OC` (stereo not drawn), the half-maximal inhibitory concentration (IC50) is 3.86 µM.

Consider `COC(=O)c1[nH]c2ccccc2c1NC(=O)CNC1CCCCC1`, for which the 50% inhibitory concentration (IC50) is 8.49 µM.

On to `COc1ccc(-n2c(/C=C/c3ccc(O)cc3)nc3ccccc3c2=O)cc1`, for which the IC50 is 6.21 µM.

As to `O=C(COC(=O)c1ccccc1C(=O)OCC(=O)NCCc1c[nH]c2ccccc12)NCCc1c[nH]c2ccccc12`, the IC50 is 4.86 µM.

`Cc1nc2c(c(=O)n1CCC1=CCCCC1)c1nc3ccccc3nc1n2/N=C/c1ccccc1`: the IC50 is 10.5 µM (inactive).

Consider `CC(=O)Nc1ccc(-c2csc(NC(=O)Nc3ccccc3)n2)cc1`, for which the IC50 is 40.6 µM (inactive).

With `Cc1ccc(-n2cc(-c3ccccc3)c3c(N4CCOCC4)ncnc32)cc1`, the IC50 is 5.98 µM.

Regarding `O=C(NCC1CCCO1)C(c1ccc(F)cc1)N(C(=O)Cn1nnc(-c2ccc(F)cc2)n1)c1cccc(O)c1` (stereo not drawn), the IC50 was 4.48 µM.

On to `COc1ccc(CCCNC(=O)C2(C)Cc3c(-c4ccc(NC(C)=O)cc4)ccnc3O2)cc1` (stereo not drawn), for which the IC50 is > 79 µM (inactive).

Take `Cc1[nH]c2ccccc2c1/C=N/NC(=O)c1cc(-c2cccs2)[nH]n1`: the IC50 was 3.62 µM.

Consider `COc1ccc(-c2ccc3[nH]c4c(c3c2)CCN2C[C@H]3[C@H](C)ON(C)[C@H]3C[C@@H]42)cc1`, for which the IC50 was > 79 µM (inactive).

On to `O=C(NCCc1c[nH]c2ccccc12)C(=O)NCC(c1ccco1)N1CCN(c2ccccc2F)CC1` (stereo not drawn), for which the IC50 was 5.64 µM.

As for `c1cncc(-c2nc(NCC3COc4ccccc4O3)c3ccccc3n2)c1` (stereo not drawn), the IC50 was > 79 µM (inactive).

Take `O=C(/C=C\c1cn(-c2ccccc2)nc1-c1ccc2c(c1)OCCO2)N1CCOCC1`: the IC50 was 7.49 µM.

Take `COc1ccccc1CN(C)C(=O)c1cc(-c2cc(OC)c(OC)c(OC)c2)nc2ccccc12`: the IC50 was > 79 µM (inactive).

Take `COc1ccc(-c2nn3c(-c4ccco4)nnc3s2)cc1OC`: the IC50 was 12.3 µM (inactive).

In the case of `CCCOc1ccc2[nH]c(C(=O)N/N=C/c3cc(OC)c(OC)c(OC)c3)cc2c1`, the IC50 is 4.04 µM.

As for `COc1ccc(C=CC(=O)c2ccc3cc(OC)c(OC)cc3c2)cc1OC`, the IC50 was 2.47 µM.

Consider `CC(=O)Nc1cc(-c2ccc(C(=O)N3CCOCC3)cc2)cn2c(-c3ccc(C(C)=O)cc3)cnc12`, for which the IC50 was > 79 µM (inactive).

For the compound `CCOC(=O)c1ccccc1OCc1cc(/C=N/NC(=O)c2cccnc2)ccc1OC`, the IC50 is > 79 µM (inactive).

On to `COc1cccc(/C=N/NC(=O)c2nc(-c3ccccc3)cc(-c3ccccc3)n2)c1`, for which the IC50 was 1.61 µM.

As for `COCCn1ccc2c(OCC(=O)Nc3ccccc3OC)cccc2c1=O`, the IC50 is > 79 µM (inactive).

Take `COc1cc(-c2cc(NC(C)=O)c3ncc(-c4ccc(C(C)=O)cc4)n3c2)cc(OC)c1OC`: the IC50 is 6.06 µM.

Take `COc1cc(/C=C/c2nc3ccccc3c(=O)n2-c2ccc(O)cc2)ccc1O`: the IC50 was 3.01 µM.

In the case of `COc1ccc(C(=O)Nc2cccc(/C(C)=N/NC(=O)c3ccc([N+](=O)[O-])c(C)c3)c2)cc1OC`, the IC50 is 4.93 µM.

Consider `CC(C)OCCCNC(=O)CCC(=O)NNc1nc2ccccc2c2nc(-c3ccccc3)nn12`, for which the IC50 was 19.8 µM (inactive).
